In paper PMC11546786, “Designing Analogs of SAAP-148 with Enhanced Antimicrobial and Anti-LPS Activities” (International Journal of Molecular Sciences, 2024):
Ends that are not written are not given here.

What was measured:
[1] = test system: human erythrocytes versus five bacterial strains; assay: Therapeutic index (MHC/GM of MIC); details: for Fold (TI of analogue compared with SAAP-148): TI change relative to SAAP-148; for TI (MHC/MIC): ratio of MHC to geometric mean of MIC (five strains)
Procedure: The geometric mean of minimum inhibitory concentration (MIC) values (GM) from the five strains was calculated to provide a comprehensive assessment of antimicrobial activity, as presented in Table 4.
The therapeutic index (TI) is a widely utilized parameter for indicating the specificity of antimicrobial agents, which is determined by the ratio of MHC (hemolytic activity) and MIC (antimicrobial activity). Consequently, larger TI values signify greater antimicrobial specificity. The TI can be enhanced through one of three mechanisms: increasing antimicrobial activity, reducing hemolytic activity while maintaining antimicrobial activity, or a combination of both augmenting antimicrobial activity and diminishing hemolytic activity.

[2] = test system: five bacterial strains; assay: MICs against all five bacterial strains (geometric mean, range); format: cell-based; set-up: unit not given here; details: geometric mean of MICs against all five bacterial strains
Procedure: (§1) The antibacterial activities of the peptides against […] were evaluated using a modified version of the Clinical Laboratory and Standards Institute (CLSI) broth microdilution method, as previously described. Briefly, the bacteria were cultured in liquid LB medium (comprising 10 g/L tryptone, 5 g/L yeast extract, and 10 g/L NaCl) at 37 °C until reaching mid-log phase. Subsequently, the bacterial concentration was adjusted to 1 × 10^6 colony-forming units (CFU)/mL. The peptides were then diluted serially with phosphate-buffered saline (PBS), followed by the addition of 50 μL of the diluted peptides to 50 μL of the bacterial suspension in a 96-well plate (Corning Inc., Lowell, MA, USA). After incubating at 37 °C for 18 to 20 h, the absorbance of each well was measured using a multi-well microplate reader (SpectraMax M5; Molecular Devices, Sunnyvale, CA, USA) at 600 nm.

[3] = test system: Staphylococcus aureus (1.8721); format: cell-based
Text: (§2) The LL-37, SAAP-148 and its analogues peptides were synthesized according to the standard Fmoc procedure. The Fmoc-protected resin and monomers are first treated with a basic solvent (piperidine) to remove the amino protecting groups. The carboxyl group of the next amino acid is activated by an activator. The activated monomer reacts with the free amino group to form a peptide bond. These two steps are repeated in a cycle until the synthesis is complete. After synthesis, the peptide is eluted from the column and purified by reverse-phase semipreparative high-performance liquid chromatography as detailed in Table 1. The peptides were dissolved in PBS to create a 1000 μmol/L stock solution for subsequent use. The purity of the synthetic peptide exceeded 95%. Blood samples from healthy donors were obtained from the Fifth Medical Center of Chinese PLA General Hospital (Beijing, China). Human normal lung epithelial cells (BEAS-2B) and mouse mononuclear macrophages cells (RAW 264.7) were sourced from Beyotime Biotechnology (Beijing, China), along with the Enhanced Cell Counting Kit-8 (CCK-8) and nitric oxide detection kit. RPMI-1640 and DMEM were procured from Merck (Darmstadt, Germany), while FBS was obtained from ExCell Bio (Shanghai, China). LPS-B5 (from E. coli 055:B5) was procured from Invivogen (Toulouse, France). Five bacterial strains, including Escherichia coli (1.8732), Pseudomonas aeruginosa (1.2421), Klebsiella pneumonia (1.1736) as Gram-negative bacteria, and Staphylococcus aureus (1.8721) and Staphylococcus epidermidis (1.4260) as Gram-positive bacteria, were procured from the China General Microbiological Culture Collection Centre (CGMCC) (Beijing, China).
as §1

[4] = test system: Escherichia coli (1.8732); format: cell-based
Text: as §2, §1

[5] = test system: Pseudomonas aeruginosa (1.2421); format: cell-based
Text: as §2, §1

[6] = test system: Staphylococcus epidermidis (1.4260); format: cell-based
Text: as §2, §1

[7] = Reversed-phase HPLC retention time as measure of peptide hydrophobicity; format: physicochemical; details: retention time by reverse-phase HPLC, reflects hydrophobicity difference between analogues
Text: The physicochemical parameters crucial for the antimicrobial activity of AMPs have been identified, encompassing net charge, helicity, hydrophobicity, and amphipathicity. The hydropathicity, mean relative hydrophobic moment, and charge of peptides were predicted using the HeliQuest (https://heliquest.ipmc.cnrs.fr/ (accessed on 12 March 2024)). Lysine is a hydrophilic amino acid, and its substitution leads to a decrease in the hydrophobicity of the SAAP-148 analogue. The anticipated results are consistent, with the degree of reduction in […] varying depending on the position at which lysine is substituted (Table 2). The amphipathicity of the peptides, as denoted by the μH (mean relative hydrophobic moment), is elaborated on in Table 2. The hydrophobic moment of SAAP-148 analogues was decreased except for SAAP-10, which is on account of the substitution occurring on the18th residue. (Figure 1) The 18th residue of SAAP-148 is glutamine, a polar amino acid residue, located at the junction of the hydrophobic and hydrophilic surfaces of the SAAP-148 α-helix. […] The retention time data determined by reversed-phase high-performance liquid chromatography (RP-HPLC) reflects the hydrophobicity difference between peptide analogues. It is well documented that the formation of a hydrophobic-binding domain due to peptide secondary structure can affect peptide interactions with reversed-phase matrices. This effect was observed particularly for amphipathic α-helical peptides. Given this preferred binding domain, amphipathic α-helical peptides are considerably more retentive than non-amphipathic peptides with the same amino acid composition.
This phenomenon was particularly evident in the case of amphipathic α-helical peptides. […] This discrepancy may be attributed to the lack of a well-defined α-helical structure in SAAP-148 and its analogues (Figure S1).

[8] = CD spectra, secondary structure by BeStSel; format: physicochemical; details: 30 μM SDS as printed, 100 μM peptide, 25 °C
Procedure: CD spectra (Figure S1) were acquired using a JASCO J-1500 spectropolarimeter (JASCO Inc., Easton, MD, USA) in 0.1 cm pathlength cells under nitrogen at 25 °C. The spectra were recorded in the range of 190 to 250 nm at a peptide concentration of 100 μM in SDS. Secondary structure was determined using the BeStSel server. Hydropathicity, mean relative hydrophobic moment, and charge of peptides were predicted using the HeliQuest (https://heliquest.ipmc.cnrs.fr/ (accessed on 12 March 2024)). The 3D structure of SAAP-148 and its analogues (Figure S2) was predicted using PEP-FOLD4 servers (https://bioserv.rpbs.univ-paris-diderot.fr/services/PEP-FOLD4/ (accessed on 19 June 2024)).

[9] = test system: Gram-negative bacteria (E. coli, P. aeruginosa, K. pneumoniae); assay: Geometric mean of MICs against Gram-negative bacteria; format: cell-based; set-up: unit not given here
Procedure: as §1

[10] = test system: Gram-positive bacteria (S. aureus, S. epidermidis); assay: Geometric mean of MICs against Gram-positive bacteria; format: cell-based; set-up: unit not given here
Procedure: as §1

[11] = test system: Klebsiella pneumonia (1.1736); format: cell-based, Klebsiella pneumoniae
Text: as §2, §1

| Substance | Fold (TI of analogue compared with SAAP-148) [1] | TI (MHC/MIC) [1] | MIC (GM) [2] | MIC S. aureus [3] | MIC E. coli [4] | MIC P. aeruginosa [5] | MIC S. epidermidis [6] | Rt [7] | Others [8] | Turn [8] | α-Helix [8] | β-Antiparallel [8] | β-Parallel [8] | GM to G− [9] | GM to G+ [10] | MIC K. pneumoniae [11] |
| --- | --- | --- | --- | --- | --- | --- | --- | --- | --- | --- | --- | --- | --- | --- | --- | --- |
| LKRVWKRVFKKLKRYWRQLKKPVR-NH2 [SAAP-6] | 15.82 | 1.74 | 3.59 | 25.00 µM | 1.56 µM | 1.56 µM | 1.56 µM | 9.213 min | 0% | 0% | 84.4% | 15.6% | 0% | 2.48 | 6.24 | 6.25 µM |
| LKRVWKRVFKLLKRYWRQLKKPKR-NH2 [SAAP-13] | 0.45 | 0.05 | 14.36 | 50.00 µM | 6.25 µM | 12.50 µM | 6.25 µM | 16.867 min | 1.2% | 0% | 98.8% | 0% | 0% | 12.5 | 17.68 | 25.00 µM |
| LKRVWKRVFKLLKRKWRQLKKPVR-NH2 [SAAP-8] | 6 | 0.66 | 4.74 | 25.00 µM | 1.56 µM | 1.56 µM | 1.56 µM | 13.475 min | 0% | 0% | 100% | 0% | 0% | 3.93 | 6.24 | 25.00 µM |
| LKRVKKRVFKLLKRYWRQLKKPVR-NH2 [SAAP-3] | 72.73 | 8.00 | 6.25 | 100.00 µM | 1.56 µM | 3.13 µM | 3.13 µM | 11.208 min | 0% | 0% | 100% | 0% | 0% | 3.12 | 17.69 | 6.25 µM |
